How the values were obtained:
HCC1419 = test: Cell growth inhibition assay (methylene blue-based); conditions: Homo sapiens, continuous exposure 4 or 7 days, at least three experiments
[1] = system: panel of 19 human breast cancer cell lines; test: Cell growth inhibition assay, whole panel; assay type: cell-based
Excerpt: (§1) The following human breast cancer cell lines were obtained from the ATCC. Cells were maintained according to ATCC-recommended culture conditions. AU565 (ATCC Catalog No. ATCC Catalog No. CRL-2351), BT-20 (ATCC Catalog No. HTB-19), MCF7 (ATCC Catalog No. HTB22), MDA-MB-231 (ATCC Catalog No. HTB-26), MDA-MB-435 (ATCC Catalog No. HTB-129), MDA-MB-468 (ATCC Catalog No. HTB-132), HCC38 (ATCC Catalog No. CRL-2314), HCC70 (ATCC Catalog No. CRL-2315), HCC1143 (ATCC Catalog No. CRL-2321), HCC1428 (ATCC Catalog No. CRL-2327), HCC1500 (ATCC Catalog No. CRL-2329), HCC1806 (ATCC Catalog No. CRL-2335), HCC1954 (ATCC Catalog No. CRL-2338), HCC2218 (ATCC Catalog No. CRL-2343), UACC-812 (ATCC Catalog No. CRL-1897), UACC-893 (ATCC Catalog No. CRL-1902), ZR-75-1 (ATCC Catalog No. CRL-1500), ZR-75-30 (ATCC Catalog No. CRL-1504).
Cultured human breast cancer cells were placed in 96-well plates and grown in the continuous presence of test compounds for 4 or 7 days. […] Cell growth was assessed using modifications (Amin et al., Cancer Res., 47:6040-6045, 1987; incorporated herein by reference) of a methylene blue-based microculture assay (Finlay et al., Anal. Biochem., 139:272-277, 1984; incorporated herein by reference).
Antiproliferative effects of four tubulin-binding anticancer agents were evaluated by a methylene blue-based cell growth inhibin assay in a panel of 19 human breast cancer cell lines. […]

MDA-MB-435 = test: Cell growth inhibition assay (methylene blue-based); conditions: Homo sapiens, continuous exposure 4 or 7 days, at least three experiments
Excerpt: as §1
(§2) Cultured human breast cancer cells were placed in 96-well plates and grown in the continuous presence of test compounds for 4 or 7 days. To expose the cells to test compounds for 7 days, medium was replaced with fresh medium containing compounds after 4 days of exposure and cells were incubated for 3 additional days. Cell growth was assessed using modifications (Amin et al., Cancer Res., 47:6040-6045, 1987; incorporated herein by reference) of a methylene blue-based microculture assay (Finlay et al., Anal. Biochem., 139:272-277, 1984; incorporated herein by reference).
(§3) To investigate the possible expression of PgP by the cell lines used in this study, the antiproliferative effects of paclitaxel were determined in the presence and absence of verapamil, a known inhibitor of PgP.

UACC-812 = test: as above; conditions: Homo sapiens, continuous exposure 4 or 7 days, at least three experiments
Excerpt: as §1, §2, §3

ZR-75-1 = test: as above; conditions: Homo sapiens, continuous exposure 4 or 7 days, at least three experiments
Excerpt: as §1, §2, §3

MDA-MB-468 = test: as above; conditions: Homo sapiens, continuous exposure 4 or 7 days, at least three experiments
Excerpt: as §1, §2, §3

HCC1954 = test: as above; conditions: Homo sapiens, continuous exposure 4 or 7 days, at least three experiments
Excerpt: as §1, §2, §3

HCC1143 = test: as above; conditions: Homo sapiens, continuous exposure 4 or 7 days, at least three experiments
Excerpt: as §1, §2, §3

HCC1806 = test: as above; conditions: Homo sapiens, continuous exposure 4 or 7 days, at least three experiments
Excerpt: as §1, §2, §3

HCC38 = test: as above; conditions: Homo sapiens, continuous exposure 4 or 7 days, at least three experiments
Excerpt: as §1, §2, §3

MCF-7 = test: as above; conditions: Homo sapiens, MCF7, continuous exposure 4 or 7 days, at least three experiments
Excerpt: as §1, §2, §3

ZR-75-30 = test: as above; conditions: Homo sapiens, continuous exposure 4 or 7 days, at least three experiments
Excerpt: as §1, §2, §3

UACC-893 = test: as above; conditions: Homo sapiens, continuous exposure 4 or 7 days, at least three experiments
Excerpt: as §1, §2, §3

HCC1428 = test: as above; conditions: Homo sapiens, continuous exposure 4 or 7 days, at least three experiments
Excerpt: as §1, §2, §3

HCC1500 = test: as above; conditions: Homo sapiens, continuous exposure 4 or 7 days, at least three experiments
Excerpt: as §1, §2, §3

AU565 = test: as above; conditions: Homo sapiens, continuous exposure 4 or 7 days, at least three experiments
Excerpt: as §1, §2, §3

HCC70 = test: as above; conditions: Homo sapiens, continuous exposure 4 or 7 days, at least three experiments
Excerpt: as §1, §2, §3

MDA-MB-231 = test: as above; conditions: Homo sapiens, continuous exposure 4 or 7 days, at least three experiments
Excerpt: as §1, §2, §3

HC-2218 = test: as above; conditions: Homo sapiens, continuous exposure 4 or 7 days, at least three experiments
Excerpt: as §1, §2, §3

BT-20 = test: as above; conditions: Homo sapiens, continuous exposure 4 or 7 days, at least three experiments
Excerpt: as §1, §2, §3

- IC50 (HCC1419): 1.59 nM
- IC50 ([1]; Homo sapiens, range over the panel of 19 cell lines): 0.29 to 1.8 nM
- fold-difference between IC50's in the most sensitive and the least sensitive cell line ([1]; panel of 19 breast cancer cell lines): 6.2 fold
- IC50 (MDA-MB-435): 0.29 nM
- IC50 (MDA-MB-468): 0.45 nM
- IC50 (HCC1954): 0.37 nM
- IC50 (HCC1143): 0.43 nM
- IC50 (HCC1806): 0.74 nM
- IC50 (HCC38): 0.4 nM
- IC50 (MCF-7): 1.45 nM
- IC50 (HCC1428): 0.53 nM
- IC50 (HCC1500): 0.56 nM
- IC50 (MDA-MB-231): 1.75 nM
- IC50 (BT-20): 0.82 nM
SMILES: C=C1C[C@@H]2CC[C@@]34C[C@H]5O[C@H]6[C@@H](O3)C3O[C@H](CCC3O[C@H]6C5O4)CC(=O)CC3[C@H](CC4O[C@@H](CCC1O2)C[C@@H](C)C4=C)O[C@H](C[C@H](O)CN)[C@@H]3OC (stereo partly drawn) [E7389]
- IC50 (UACC-812): 1.17 nM
- IC50 (ZR-75-1): 1.19 nM
- IC50 (ZR-75-30): 1.8 nM
- IC50 (UACC-893): 0.31 nM
- IC50 (AU565): 0.65 nM
- IC50 (HCC70): 0.63 nM
- IC50 (HC-2218): 1.14 nM
